Assay results as given in ChEMBL document CHEMBL6092149, “Discovery of 1(2H)-phthalazinone and 1(2H)-isoquinolinone derivatives as potent hematopoietic progenitor kinase 1 (HPK1) inhibitors” (Eur J Med Chem, 2024).
Blank lines part the entries; values can stand above or below the molecule they belong to.

Legend:
[1] = biological target: T1, Mitogen-activated protein kinase kinase kinase kinase 1 (Homo sapiens, UniProt Q92918); assay: Inhibition of N-terminal DYKDDDDK recombinant human HPK1 (1 to 346 residues) expressed in Sf21 insect cells preincubated for 10 min followed by fluorescein PKC and ATP addition and measured after 90 min by Envision2104 Multilabel Reader analysis
Target sequence in this assay (Q92918 whole entry, the tested form may be a part): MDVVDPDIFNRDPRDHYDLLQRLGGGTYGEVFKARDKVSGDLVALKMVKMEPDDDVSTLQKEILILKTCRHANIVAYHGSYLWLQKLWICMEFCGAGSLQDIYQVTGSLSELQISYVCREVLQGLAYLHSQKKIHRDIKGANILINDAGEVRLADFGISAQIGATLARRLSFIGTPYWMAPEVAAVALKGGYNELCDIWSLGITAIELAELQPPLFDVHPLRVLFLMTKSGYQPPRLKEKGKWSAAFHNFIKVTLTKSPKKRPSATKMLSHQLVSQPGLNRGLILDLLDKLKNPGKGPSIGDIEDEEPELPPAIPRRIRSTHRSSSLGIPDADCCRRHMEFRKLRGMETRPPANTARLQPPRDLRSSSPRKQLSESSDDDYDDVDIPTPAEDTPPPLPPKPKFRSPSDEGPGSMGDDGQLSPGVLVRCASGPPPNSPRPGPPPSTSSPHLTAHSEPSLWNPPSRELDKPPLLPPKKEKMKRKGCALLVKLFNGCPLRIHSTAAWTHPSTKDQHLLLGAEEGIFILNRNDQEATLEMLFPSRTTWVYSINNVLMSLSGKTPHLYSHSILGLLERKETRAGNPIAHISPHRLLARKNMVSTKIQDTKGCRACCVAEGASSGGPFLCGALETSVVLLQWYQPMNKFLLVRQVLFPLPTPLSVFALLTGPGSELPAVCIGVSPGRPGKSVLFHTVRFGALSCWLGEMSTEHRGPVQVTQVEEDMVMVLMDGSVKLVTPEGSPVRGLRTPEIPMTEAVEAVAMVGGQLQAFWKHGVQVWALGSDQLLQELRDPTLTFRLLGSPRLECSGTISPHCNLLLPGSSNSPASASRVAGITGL

[2] = Toxicity against BALB/c mouse allografted with mouse CT26 cells assessed as body weight loss at 30 mg/kg, administered orally twice daily for 2 weeks; format: organism-based; conditions: in vivo, po, 336 h
[3] = biological target: Inhibitor of nuclear factor kappa-B kinase subunit beta (Homo sapiens) (UniProt O14920); assay: Inhibition of IKKbeta (unknown origin) at 1000 nM incubated for 1 hrs by active site-directed competition binding assay relative to control
[4] = biological target: Misshapen-like kinase 1 (Homo sapiens, UniProt Q8N4C8); assay: Inhibition of N-terminal GST-tagged recombinant human MAP4K6 (7 to 139 residues) expressed in Sf21 insect cells preincubated for 10 min followed by fluorescein PKC and ATP addition and measured after 90 min by Envision2104 Multilabel Reader analysis
[5] = biological target: Mitogen-activated protein kinase 12 (Homo sapiens) (UniProt P53778); assay: Inhibition of P38gamma (unknown origin) at 1000 nM incubated for 1 hrs by active site-directed competition binding assay relative to control
[6] = biological target: Mitogen-activated protein kinase kinase kinase 1 (Homo sapiens) (UniProt Q13233); assay: Inhibition of MAP3K1 (unknown origin) at 1000 nM incubated for 1 hrs by active site-directed competition binding assay relative to control; values are per cent of control
[7] = Inhibition of N-terminal His-tagged recombinant human TAK1(1 to 303 residues) expressed in Sf21 insect cells preincubated for 10 min followed by inactive MEK1 and ATP addition and measured after 90 min by Envision2104 Multilabel Reader analysis
[8] = Toxicity in CD-1 mouse assessed as body weight loss at 300 mg/kg, po; format: organism-based; conditions: in vivo
[9] = Oral bioavailability in in overnight fasted rat at 10 mg/kg; format: ADME, organism-based; conditions: in vivo
[10] = biological target: Mitogen-activated protein kinase kinase kinase kinase 3 (Homo sapiens, UniProt Q8IVH8); assay: Inhibition of GST-tagged recombinant human MAP4K3 (1 to 380 residues) extracted from Baculovirus infected Sf9 insect cells preincubated for 10 min followed by fluorescein PKC and ATP addition and measured after 90 min by Envision2104 Multilabel Reader analysis
[11] = biological target: Mitogen-activated protein kinase kinase kinase kinase 5 (Homo sapiens, UniProt Q9Y4K4); assay: Inhibition of GST-tagged recombinant human full length MAP4K5 expressed in insect cells preincubated for 10 min followed by fluorescein PKC and ATP addition and measured after 90 min by Envision2104 Multilabel Reader analysis; parameters: species or system Insect cell
[12] = biological target: Mitogen-activated protein kinase kinase kinase kinase 1 (Mus musculus) (UniProt P70218); assay: In vivo inhibition of HPK1 in female BALB/c mouse assessed as reduction in SLP76 phosphorylation in spleen at 100 mg/kg qd, ip and measured after 3 hrs post dosing by Western blot analysis relative to control; format: functional, organism-based
[13] = biological target: Mitogen-activated protein kinase kinase kinase kinase 1 (Mus musculus) (UniProt P70218); assay: In vivo inhibition of HPK1 in female BALB/c mouse assessed as reduction in SLP76 phosphorylation in spleen at 100 mg/kg qd, ip and measured after 24 hrs post dosing by Western blot analysis relative to control; format: functional, organism-based
[14] = biological target: T1, Mitogen-activated protein kinase kinase kinase kinase 1; assay: Inhibition of HPK1 in human T cells assessed as increase in IL-2 secretion measured after 24 hrs by ELISA method; format: cell-based, T-cell; conditions: for Activity: T-cell
[15] = biological target: Mitogen-activated protein kinase kinase kinase kinase 2 (Homo sapiens, UniProt Q12851); assay: Inhibition of N-terminal GST tagged recombinant human MAP4K2 (1 to 820 residues) expressed in Sf21 insect cells preincubated for 10 min followed by fluorescein PKC and ATP addition and measured after 90 min by Envision2104 Multilabel Reader analysis
[16] = AUC (0 to 24 hrs) in overnight fasted mouse at 10 mg/kg, po; format: ADME, organism-based; conditions: in vivo
[17] = biological target: Calcium/calmodulin-dependent protein kinase type IV (Homo sapiens) (UniProt Q16566); assay: Inhibition of CAMK4 (unknown origin) at 1000 nM incubated for 1 hrs by active site-directed competition binding assay relative to control; values are per cent of control
[18] = tested on: CT26; assay: Antitumor activity against mouse CT26 cells allografted in female BALB/c mouse assessed as tumor growth inhibition at 3 mg/kg, ip administered twice daily and measured on 13 day in presence of presence of anti-PD-1 relative to control; format: functional; conditions: CT26, 312 h, read-out: TGI
[19] = biological target: Mitogen-activated protein kinase 11 (Homo sapiens) (UniProt Q15759); assay: Inhibition of P38beta (unknown origin) at 1000 nM incubated for 1 hrs by active site-directed competition binding assay relative to control
[20] = biological target: Mitogen-activated protein kinase kinase kinase kinase 4 (Homo sapiens, UniProt O95819); assay: Inhibition of N-terminal GST-tagged recombinant human MAP4K4 (1 to 328 residues) expressed in Sf21 insect cells preincubated for 10 min followed by fluorescein PKC and ATP addition and measured after 90 min by Envision2104 Multilabel Reader analysis
[21] = biological target: Mitogen-activated protein kinase 9 (Homo sapiens) (UniProt P45984); assay: Inhibition of JNK2 (unknown origin) at 1000 nM incubated for 1 hrs by active site-directed competition binding assay relative to control
[22] = Toxicity in CD-1 mouse assessed as body weight loss at 1000 mg/kg, po; format: organism-based; conditions: in vivo
[23] = biological target: Tyrosine-protein kinase ITK/TSK (Homo sapiens) (UniProt Q08881); assay: Inhibition of ITK (unknown origin) at 1000 nM incubated for 1 hrs by active site-directed competition binding assay relative to control
[24] = biological target: T1, Mitogen-activated protein kinase kinase kinase kinase 1; assay: Inhibition of HPK1 in human Jurkat cells assessed as reduction in SLP76 phosphorylation pretreated for 1 hr followed by anti-CD3 addition and measured after 15 min by ELISA method; format: cell-based
Target sequence in this assay (Q92918 whole entry, the tested form may be a part): as above

[25] = biological target: Mitogen-activated protein kinase 8 (Homo sapiens) (UniProt P45983); assay: Inhibition of JNK1 (unknown origin) at 1000 nM incubated for 1 hrs by active site-directed competition binding assay relative to control
[26] = biological target: Mitogen-activated protein kinase 13 (Homo sapiens) (UniProt O15264); assay: Inhibition of P38delta (unknown origin) at 1000 nM incubated for 1 hrs by active site-directed competition binding assay relative to control
[27] = biological target: Mitogen-activated protein kinase 3 (Homo sapiens) (UniProt P27361); assay: Inhibition of ERK1 (unknown origin) at 1000 nM incubated for 1 hrs by active site-directed competition binding assay relative to control
[28] = Plasma Clearance in overnight fasted rat at 1 mg/kg, iv; format: ADME, organism-based
[29] = biological target: Mitogen-activated protein kinase 1 (Homo sapiens) (UniProt P28482); assay: Inhibition of ERK2 (unknown origin) at 1000 nM incubated for 1 hrs by active site-directed competition binding assay relative to control
[30] = Cmax in overnight fasted mouse at 10 mg/kg, po; format: ADME, organism-based; conditions: in vivo
[31] = Toxicity against BALB/c mouse […] with mouse CT26 cells assessed as body weight loss at 3 mg/kg, ip administered twice daily and measured on 13 day in presence of presence of anti-PD-1; format: organism-based; conditions: in vivo, 312 h
[32] = Half life in overnight fasted rat at 1 mg/kg, iv; format: ADME, organism-based; conditions: in vivo
[33] = biological target: RAC-gamma serine/threonine-protein kinase (Homo sapiens) (UniProt Q9Y243); assay: Inhibition of AKT3 (unknown origin) at 1000 nM incubated for 1 hrs by active site-directed competition binding assay relative to control; values are per cent of control
[34] = biological target: Mitogen-activated protein kinase 14 (Homo sapiens) (UniProt Q16539); assay: Inhibition of P38alpha (unknown origin) at 1000 nM incubated for 1 hrs by active site-directed competition binding assay relative to control
[35] = AUC (0 to 24 hrs) in overnight fasted rat at 10 mg/kg, po; format: ADME, organism-based; conditions: in vivo
[36] = biological target: T1, Mitogen-activated protein kinase kinase kinase kinase 1; assay: Inhibition of human HPK1 at 1000 nM incubated for 1 hrs by active site-directed competition binding assay relative to control; values are per cent of control
Target sequence in this assay (Q92918 whole entry, looked up, the tested form may be a part): as the sequence (Q92918 whole entry, the tested form may be a part) above

[37] = Plasma clearance in overnight fasted mouse at 1 mg/kg, iv; format: ADME, organism-based
[38] = Half life in overnight fasted mouse at 1 mg/kg, iv; format: ADME, organism-based; conditions: in vivo
[39] = Cmax in overnight fasted rat at 10 mg/kg, po; format: ADME, organism-based; conditions: in vivo
[40] = tested on: CT26; assay: Antitumor activity against mouse CT26 cells allografted in female BALB/c mouse assessed as tumor growth inhibition at 30 mg/kg, administered orally twice daily for 2 weeks; format: functional; conditions: CT26, 336 h, route po, read-out: TGI
[41] = biological target: RAF proto-oncogene serine/threonine-protein kinase (Homo sapiens) (UniProt P04049); assay: Inhibition of RAF1 (unknown origin) at 1000 nM incubated for 1 hrs by active site-directed competition binding assay relative to control
[42] = Oral bioavailability in in overnight fasted mouse at 10 mg/kg; format: ADME, organism-based; conditions: in vivo
[43] = biological target: RAC-beta serine/threonine-protein kinase (Homo sapiens) (UniProt P31751); assay: Inhibition of AKT2 (unknown origin) at 1000 nM incubated for 1 hrs by active site-directed competition binding assay relative to control; values are per cent of control
[44] = biological target: Tyrosine-protein kinase ZAP-70 (Homo sapiens) (UniProt P43403); assay: Inhibition of ZAP70 (unknown origin) at 1000 nM incubated for 1 hrs by active site-directed competition binding assay relative to control
[45] = biological target: Tyrosine-protein kinase Lck (Homo sapiens) (UniProt P06239); assay: Inhibition of LCK (unknown origin) at 1000 nM incubated for 1 hrs by active site-directed competition binding assay relative to control; values are per cent of control
[46] = species: Homo sapiens; assay: Inhibition of TAK1 (unknown origin) at 1000 nM incubated for 1 hrs by active site-directed competition binding assay relative to control

Mitogen-activated protein kinase kinase kinase kinase 1 (Mus musculus), sequence (P70218 whole entry): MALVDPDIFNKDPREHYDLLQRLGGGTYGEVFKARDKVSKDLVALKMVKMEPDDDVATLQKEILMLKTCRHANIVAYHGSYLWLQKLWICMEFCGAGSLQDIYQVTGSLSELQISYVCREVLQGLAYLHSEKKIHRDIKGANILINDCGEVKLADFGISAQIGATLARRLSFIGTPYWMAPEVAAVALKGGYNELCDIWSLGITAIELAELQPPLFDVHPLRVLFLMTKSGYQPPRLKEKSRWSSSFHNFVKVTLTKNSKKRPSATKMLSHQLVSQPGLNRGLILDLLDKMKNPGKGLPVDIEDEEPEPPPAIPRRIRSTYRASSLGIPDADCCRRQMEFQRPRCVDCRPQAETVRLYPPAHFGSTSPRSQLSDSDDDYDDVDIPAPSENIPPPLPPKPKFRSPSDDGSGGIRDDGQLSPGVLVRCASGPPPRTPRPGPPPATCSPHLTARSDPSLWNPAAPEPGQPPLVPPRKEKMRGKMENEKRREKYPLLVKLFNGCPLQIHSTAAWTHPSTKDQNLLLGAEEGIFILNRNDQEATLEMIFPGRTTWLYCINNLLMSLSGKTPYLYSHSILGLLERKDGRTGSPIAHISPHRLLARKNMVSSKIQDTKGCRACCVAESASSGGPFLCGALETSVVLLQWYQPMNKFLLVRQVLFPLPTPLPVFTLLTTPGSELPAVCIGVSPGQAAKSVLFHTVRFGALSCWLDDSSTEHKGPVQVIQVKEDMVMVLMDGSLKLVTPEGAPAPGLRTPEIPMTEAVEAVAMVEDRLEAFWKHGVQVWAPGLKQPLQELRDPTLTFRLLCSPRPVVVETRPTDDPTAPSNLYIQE
RAC-gamma serine/threonine-protein kinase (Homo sapiens), sequence (Q9Y243 whole entry): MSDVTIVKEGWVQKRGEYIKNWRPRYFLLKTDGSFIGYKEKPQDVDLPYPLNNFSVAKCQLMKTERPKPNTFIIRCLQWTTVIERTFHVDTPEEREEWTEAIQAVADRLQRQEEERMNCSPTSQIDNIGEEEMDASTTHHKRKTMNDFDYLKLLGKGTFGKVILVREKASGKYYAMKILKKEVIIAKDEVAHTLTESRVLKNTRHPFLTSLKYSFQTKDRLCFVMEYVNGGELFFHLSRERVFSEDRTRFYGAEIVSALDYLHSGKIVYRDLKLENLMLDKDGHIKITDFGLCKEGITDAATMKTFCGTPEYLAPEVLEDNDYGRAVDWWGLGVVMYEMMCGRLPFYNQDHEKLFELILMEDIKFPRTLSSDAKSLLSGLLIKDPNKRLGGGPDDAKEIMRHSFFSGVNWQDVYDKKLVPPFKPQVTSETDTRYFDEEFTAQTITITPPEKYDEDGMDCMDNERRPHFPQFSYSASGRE
Mitogen-activated protein kinase 14 (Homo sapiens), sequence (Q16539 whole entry): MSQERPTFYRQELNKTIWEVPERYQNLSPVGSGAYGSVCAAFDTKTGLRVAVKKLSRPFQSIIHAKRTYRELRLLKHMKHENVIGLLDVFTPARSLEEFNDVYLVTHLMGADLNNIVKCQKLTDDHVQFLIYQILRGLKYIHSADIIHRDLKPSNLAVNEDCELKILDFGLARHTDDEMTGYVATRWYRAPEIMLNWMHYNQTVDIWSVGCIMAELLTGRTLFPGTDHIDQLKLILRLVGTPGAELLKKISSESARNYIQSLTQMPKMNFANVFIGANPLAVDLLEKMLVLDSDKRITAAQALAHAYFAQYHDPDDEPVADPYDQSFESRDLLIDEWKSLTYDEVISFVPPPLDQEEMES
Mitogen-activated protein kinase 8 (Homo sapiens), sequence (P45983 whole entry): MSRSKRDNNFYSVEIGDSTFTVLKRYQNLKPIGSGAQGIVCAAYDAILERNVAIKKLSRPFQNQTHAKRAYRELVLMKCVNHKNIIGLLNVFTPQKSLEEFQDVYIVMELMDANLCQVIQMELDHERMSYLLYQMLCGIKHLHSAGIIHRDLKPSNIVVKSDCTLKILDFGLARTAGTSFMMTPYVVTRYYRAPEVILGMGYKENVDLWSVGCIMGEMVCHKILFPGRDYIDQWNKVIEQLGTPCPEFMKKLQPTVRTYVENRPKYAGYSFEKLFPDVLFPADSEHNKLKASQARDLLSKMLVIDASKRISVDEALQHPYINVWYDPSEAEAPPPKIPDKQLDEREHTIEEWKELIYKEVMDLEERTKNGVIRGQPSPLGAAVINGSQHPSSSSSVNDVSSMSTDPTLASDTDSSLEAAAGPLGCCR
Mitogen-activated protein kinase kinase kinase 1 (Homo sapiens), sequence (Q13233 whole entry, the tested form may be a part): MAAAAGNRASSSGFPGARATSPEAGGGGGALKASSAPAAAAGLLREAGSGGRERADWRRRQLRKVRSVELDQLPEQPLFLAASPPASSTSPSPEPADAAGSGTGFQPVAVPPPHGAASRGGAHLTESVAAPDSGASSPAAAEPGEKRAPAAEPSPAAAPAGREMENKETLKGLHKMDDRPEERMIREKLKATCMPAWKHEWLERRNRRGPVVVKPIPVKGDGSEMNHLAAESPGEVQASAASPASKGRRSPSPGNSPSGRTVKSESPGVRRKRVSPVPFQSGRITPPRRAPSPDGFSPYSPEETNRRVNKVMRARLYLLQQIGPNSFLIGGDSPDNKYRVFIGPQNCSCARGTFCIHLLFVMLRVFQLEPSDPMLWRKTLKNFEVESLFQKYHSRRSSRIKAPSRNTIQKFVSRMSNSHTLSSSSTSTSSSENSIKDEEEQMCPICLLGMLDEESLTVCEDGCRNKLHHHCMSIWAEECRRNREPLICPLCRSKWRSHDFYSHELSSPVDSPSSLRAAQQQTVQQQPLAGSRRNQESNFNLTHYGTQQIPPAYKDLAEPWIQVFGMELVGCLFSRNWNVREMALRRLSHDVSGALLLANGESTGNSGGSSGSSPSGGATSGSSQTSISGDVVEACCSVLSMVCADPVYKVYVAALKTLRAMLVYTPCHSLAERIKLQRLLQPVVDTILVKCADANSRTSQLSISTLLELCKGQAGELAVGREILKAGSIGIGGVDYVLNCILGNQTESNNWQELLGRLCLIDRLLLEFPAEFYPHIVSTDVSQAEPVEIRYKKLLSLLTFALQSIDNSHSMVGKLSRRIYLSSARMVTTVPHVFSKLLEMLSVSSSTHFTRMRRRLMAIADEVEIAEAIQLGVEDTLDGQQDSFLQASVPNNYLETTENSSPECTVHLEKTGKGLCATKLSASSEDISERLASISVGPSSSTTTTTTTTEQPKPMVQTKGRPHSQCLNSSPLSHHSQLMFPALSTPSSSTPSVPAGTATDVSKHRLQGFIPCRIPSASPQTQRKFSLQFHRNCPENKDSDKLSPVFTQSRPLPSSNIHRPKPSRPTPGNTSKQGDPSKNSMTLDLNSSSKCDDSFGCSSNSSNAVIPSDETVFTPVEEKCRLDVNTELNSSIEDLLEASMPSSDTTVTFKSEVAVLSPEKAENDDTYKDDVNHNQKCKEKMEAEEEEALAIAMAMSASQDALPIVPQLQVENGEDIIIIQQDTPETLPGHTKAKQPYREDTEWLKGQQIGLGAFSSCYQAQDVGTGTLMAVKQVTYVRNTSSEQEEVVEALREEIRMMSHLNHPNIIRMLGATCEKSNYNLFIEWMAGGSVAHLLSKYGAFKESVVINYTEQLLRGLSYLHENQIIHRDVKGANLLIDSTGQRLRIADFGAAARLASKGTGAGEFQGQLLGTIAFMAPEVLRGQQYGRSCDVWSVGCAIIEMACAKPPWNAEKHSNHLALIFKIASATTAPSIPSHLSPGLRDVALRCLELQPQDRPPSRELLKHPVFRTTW
Tyrosine-protein kinase Lck (Homo sapiens), sequence (P06239 2-509 limits assumed): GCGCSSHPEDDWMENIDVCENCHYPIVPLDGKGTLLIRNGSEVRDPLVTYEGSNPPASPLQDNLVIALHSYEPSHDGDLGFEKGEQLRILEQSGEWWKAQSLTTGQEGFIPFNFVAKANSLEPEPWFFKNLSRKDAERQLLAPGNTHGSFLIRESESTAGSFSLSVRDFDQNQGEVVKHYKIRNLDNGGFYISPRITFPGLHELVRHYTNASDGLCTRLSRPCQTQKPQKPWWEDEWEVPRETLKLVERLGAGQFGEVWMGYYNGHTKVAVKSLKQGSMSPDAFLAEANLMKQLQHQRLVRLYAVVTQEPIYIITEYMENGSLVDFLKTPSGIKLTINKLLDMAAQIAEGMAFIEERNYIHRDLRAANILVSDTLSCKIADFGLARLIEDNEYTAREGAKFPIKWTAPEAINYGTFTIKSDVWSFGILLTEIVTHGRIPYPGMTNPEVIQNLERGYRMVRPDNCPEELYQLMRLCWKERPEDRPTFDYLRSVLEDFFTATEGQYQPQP

Structure (SMILES): O=c1[nH]ncc2c(-c3cnc4cc(F)ccn34)ccc(Nc3ccc(C4CCOCC4)c(CN4CC[C@H](F)C4)n3)c12
- IC50 [1]: 5.4 nM
- EC50 [14]: 187 nM
- Activity [14]: Dose-dependent-effect
- AUC(0-t) [16]: 506 ng·h/mL
- EC50 [24]: 14 nM
- Cmax [30]: 484 ng/mL
- clearance [37]: 104 mL/min/kg
- half-life [38]: 30 min
- bioavailability [42]: 31%

Structure (SMILES): Cc1cc2c(-c3cnc4cc(F)ccn34)ccc(Nc3ccc(C4CCOCC4)c(CN(C)C)n3)c2c(=O)[nH]1
- IC50 [1]: > 1000 nM

Structure (SMILES): CN(C)Cc1nc(Nc2ccc(-c3cnc4cc(F)ccn34)c3c(F)c[nH]c(=O)c23)ccc1C1CCOCC1
- IC50 [1]: > 1000 nM

Now from value to molecule, other results behind:

- IC50 [1]: 525 nM
Structure (SMILES): CN(C)Cc1nc(Nc2ccc(-c3cnc4cc(F)ccn34)c3c2C(=O)NCC3)ccc1C1CCOCC1

- inhibition [3]: 93%
- IC50 [4]: 168 nM
- inhibition [5]: 36%
- percent of control [6]: 100%
- IC50 [1]: 10.4 nM
- bioavailability [9]: 80%
- IC50 [10]: 85 nM
- IC50 [11]: 104 nM
- inhibition [12]: 100%
- inhibition [13]: 50%
- EC50 [14]: 108 nM
- Activity [14]: Dose-dependent-effect
- IC50 [15]: 448 nM
- AUC(0-t) [16]: 4140 ng·h/mL
- percent of control [17]: 100%
- inhibition [19]: 84%
- IC50 [20]: 665 nM
- inhibition [21]: 86%
- inhibition [23]: 94%
- EC50 [24]: 41 nM
- inhibition [25]: 96%
- inhibition [26]: 62%
- inhibition [27]: 56%
- clearance [28]: 67 mL/min/kg
- inhibition [29]: 69%
- Cmax [30]: 1800 ng/mL
- half-life [32]: 48 min
- percent of control [33]: 100%
- inhibition [34]: 94%
- AUC(0-t) [35]: 2010 ng·h/mL
- percent of control [36]: 0.6%
- clearance [37]: 46 mL/min/kg
- half-life [38]: 36 min
- Cmax [39]: 518 ng/mL
- inhibition [41]: 85%
- bioavailability [42]: 116%
- percent of control [43]: 100%
- inhibition [44]: 90%
- percent of control [45]: 100%
- inhibition [46]: 1.5%
Structure (SMILES): O=c1[nH]ccc2c(-c3cnc4cc(F)ccn34)ccc(Nc3ccc(C4CCOCC4)c(CN4CC[C@H](F)C4)n3)c12
- Activity [2]: Non-toxic
- IC50 [7]: 4740 nM
- Activity [8]: Non-toxic
- inhibition in vivo at 3 mg/kg [18]: 95%
- Activity [22]: Non-toxic
- Activity [31]: Non-toxic
- inhibition in vivo at 30 mg/kg [40]: 42%

- IC50 [1]: 6.9 nM
- EC50 [14]: 123 nM
- Activity [14]: Dose-dependent-effect
- AUC(0-t) [16]: 477 ng·h/mL
- EC50 [24]: 19.2 nM
- Cmax [30]: 725 ng/mL
- clearance [37]: 263 mL/min/kg
- half-life [38]: 12 min
- bioavailability [42]: 77%
Structure (SMILES): CN(C)Cc1nc(Nc2ccc(-c3cnc4cc(F)ccn34)c3cn[nH]c(=O)c23)ccc1C1CCOCC1
